Measured values: publication PMC11337160, “Chirality and pH Influence the Self-Assembly of Antimicrobial Lipopeptides with Diverse Nanostructures” (ACS Applied Bio Materials, 2024)
Converted amounts (≈) assume the structure as drawn. Non-standard residues stand in square brackets, D forms with d. Residues, ends and D or L forms follow the SMILES beside them. *: point of attachment. Palmitoyl = CCCCCCCCCCCCCCCC(=O)*

Experiments:
[1] = Cryo-TEM imaging of self-assembled nanostructures; assay type: physicochemical; settings: 1 wt % aqueous solution, pH 8
Description: The Cryo-TEM imaging was performed using a field emission cryo-electron microscope (JEOL JEM-3200FSC), operating at 200 kV. To take the TEM images bright field mode with a zero-loss energy filter (omega type) was used, with a slit width of 20 eV. A Gatan UltraScan 4000 CCD camera was used to record the micrographs. During the entire experiment, the sample was kept at −187 °C. An automated FEI Vitrobot device was used to blot and vitrify samples on Quantifoil 3.5:1 holey carbon copper grids with a hole size of 3.5 μm. Before taking the images, grids were first plasma cleaned using a Gatan Solarus 9500 plasma cleaner, followed by transferring to the environmental chamber of a FEI Vitrobot at room temperature and 100% humidity. For sample spotting on the grid, 3 μL of sample solution was taken and spread on the grid. It was blotted twice and then vitrified in a 1:1 mixture of liquid ethane and propane at a temperature of −180 °C. The grids with vitrified sample solution were maintained at liquid nitrogen temperature and then cryo-transferred to the microscope.
The self-assembled nanostructure of these lipopeptides at acidic pH was investigated at the lower pH of 4.6 in our recent paper,[43] and here we report the unexpected observation of distinct self-assembled nanostructure of these lipopeptides at a higher pH. For cryo-TEM imaging at basic pH, 1 wt % aqueous solution of lipopeptides at pH 8 were prepared, this concentration being above the measured CAC values for these lipopeptides. […] In contrast, the TEM images of all the lipopeptides at pH 4.6 show small spherical micelles with a mean diameter of 4–9 nm (as reported previously,[43] with additional images in Figure S5).

[2] = system: Staphylococcus aureus ATCC 12600; assay type: cell-based; settings: ATCC 12600, 18 h
Description: (§1) Two Gram-negative strains (Escherichia coli K12 and Salmonella enterica NCTC 5188) and one Gram-positive strain (Staphylococcus aureus ATCC 12600) were employed to evaluate the potential bactericidal activity of tested lipopeptides. A single colony from each strain, pre-streaked onto an LB (lysogeny broth) agar plate, was inoculated into 5 mL of LB broth and incubated at 37 °C with shaking (250 rpm) for 18 h. Then, the bacterial culture was adjusted to 5 × 10^6 CFU mL^–1 mid-log phase in Mueller-Hinton broth (MHB), and aliquots were transferred to individual wells of a U-bottom 96-well microplate with increasing concentrations of lipopeptides (0–1000 μg mL^–1). Included positive and negative controls consisted of 0.97 μg mL^–1 ciprofloxacin or 1× PBS in MHB, respectively. After 18 h of incubation at 37 °C, 10 μL from each well was spot-inoculated onto LB agar and plates were further incubated at 37 °C overnight to assess the MBC which refers to the lowest concentration of an antibacterial agent required to kill bacteria (here denoted by colony growth on the plate).
(§2) Figure 9 Determination of MBC of lipopeptides P1, P1D, P2, and P2D. 10 μL aliquots from broth microdilution plates were spot-inoculated onto LB agar plates. The MBC refers to the lowest concentration of an antibacterial agent required to completely kill bacteria shown by the lack of colony formation. […] Positive control (+) 0.97 μg mL^–1 ciprofloxacin; negative control (−) 1X PBS.

[3] = system: Escherichia coli K12; assay type: cell-based; settings: K12, 18 h
Description: as §1, §2

[4] = system: E. coli; test: Live/Dead staining, membrane integrity (epifluorescence); assay type: cell-based; settings: two-fold MIC of lipopeptide, 1 h at 37 °C, compared to P1 and P1D
Description: A bacteria Live/Dead staining kit (PromoKine) was employed to gain insight into the possible membrane disruption activity of tested lipopeptides. In summary, we used two color fluorescence dyes with varying ability to cross the cytoplasmatic membranes of bacteria. DMAO is a green-fluorescent nucleic acid dye which stains the cell membranes of both live and dead bacteria, while the red fluorescing EthD-III dye selectively stains dead bacteria with compromised membranes. With appropriately calculated volumes of dyes, live viable bacterial cells fluoresce green whilst dead compromised cells fluoresce red. For this assessment, a total of 5 × 10^6 mL^–1 exponential phase bacterial cells were incubated with two-fold MIC of lipopeptides for 1 h at 37 °C. Negative and positive controls consisted respectively of the addition of PBS and Triton-X100 (1%) to replace lipopeptides. Afterwards, the sample was centrifuged at 1000g for 10 min. The pellet was resuspended in 100 μL of 0.85% buffered NaCl with the epifluorescence dyes, following the kit instructions, and incubated for 15 min at room temperature. The samples were examined under a Nikon Eclipse Ti2 inverted microscope.
Figure 10 Membrane permeabilization of E. coli (A) and S. aureus (B) was observed through epifluorescence microscopy. […]

[5] = system: Salmonella enterica NCTC 5188; test: Minimum bactericidal concentration (MBC); assay type: cell-based; settings: 5 × 10^6 CFU/mL in MHB, lipopeptide 0-1000 μg/mL, 18 h at 37 °C, 10 μL spot-inoculated onto LB agar, overnight 37 °C
Description: as §1, §2

[6] = Critical aggregation concentration (CAC) by Thioflavin T fluorescence; assay type: physicochemical; settings: ThT fluorescence probe (5 × 10^–4 wt % ThT), aqueous solution pH 8, 25 °C, λex 440 nm, emission 487 nm, breakpoint of I/I0 versus concentration
Description: For the fluorescence experiments, a Varian Cary Eclipse spectrofluorometer was used, and the samples were placed in 4 mm inner-width quartz cuvettes. For experimental settings, excitation and emission bandwidths of 2.5 nm were used. All the experiments were carried out at 25 °C. The CAC value for all the samples was determined by fluorescence experiments with Thioflavin T (ThT). ThT is well known to bind to amyloid fibrils, and can be used to determine CAC values.[44]−[46] First a stock solution (5 × 10^–4 wt %) ThT solution was prepared and using this solution, various concentrations of samples were prepared. The scan of the fluorescence spectra (λex = 440 nm) was taken from 460 to 670 nm.
The CAC value of the samples was calculated by plotting I/I0 versus concentration (in wt %). Here I0 is the maximum intensity for the control, i.e., ThT solution without the sample, and I signifies the maximum fluorescence intensity of ThT at a given concentration of lipopeptide.
To determine the CAC values of these lipopeptides, fluorescence probe assays using Thioflavin T (ThT) were performed, this dye being sensitive to the formation of β-sheet structures.[44]−[46] Emission spectra of the four lipopeptides were collected at different concentrations after excitation at 440 nm. At higher concentrations, an emission peak at 487 nm is visible. […] The lower CAC values for P2 and P2D are due to the higher hydrophobicity of tryptophan compared to tyrosine. […] However, since aggregation at the two different pH values gives rise to distinct nanostructures, this may be coincidental.

[7] = system: S. enterica; settings: MIC values were reported previously; cited from earlier work
Description: Table 1 Antimicrobial, Cytotoxic, and Selectivity Index Activities of Lipopeptides ^a | column: MIC (μg/mL) / S. enterica

[8] = system: E. coli; settings: MIC values were reported previously; cited from earlier work
Description: Table 1 Antimicrobial, Cytotoxic, and Selectivity Index Activities of Lipopeptides ^a | column: MIC (μg/mL) / E. coli

[9] = system: S. aureus; settings: MIC values were reported previously; cited from earlier work
Description: Table 1 Antimicrobial, Cytotoxic, and Selectivity Index Activities of Lipopeptides ^a | column: MIC (μg/mL) / S. aureus

SMILES	mean diameter of nanostructure (cryo-TEM) [1] [nm]	self-assembled nanostructure (cryo-TEM) [1]	MBC S. aureus [2] [µg/mL]	MBC E. coli [3] [µg/mL]	formation of bacterial cell aggregates, E. coli [4]	MBC S. enterica [5] [µg/mL]	CAC (critical aggregation concentration) [6] [wt %]	MIC S. enterica [7] [µg/mL]	MIC E. coli [8] [µg/mL]	MIC S. aureus [9] [µg/mL]
CCCCCCCCCCCCCCCC(=O)N[C@@H](Cc1c[nH]c2ccccc12)C(=O)N[C@@H](CCCCN)C(=O)N[C@@H](CCCCN)C(N)=O [P2] (Palmitoyl-Trp-Lys-Lys-NH2)	6.4 ± 2	long intertwined nanofibers	250 (≈ 358 µM)	250 (≈ 358 µM)	cell aggregates (clusters) was observed	250 (≈ 358 µM)	0.026 ± 0.004	62.5 to 250	15.63 to 62.5	31.25 to 62.5
CCCCCCCCCCCCCCCC(=O)N[C@@H](Cc1c[nH]c2ccccc12)C(=O)N[C@H](CCCCN)C(=O)N[C@H](CCCCN)C(N)=O [P2D] (Palmitoyl-Trp-[dK]-[dK]-NH2)	32.8 ± 4.5	nanotube structures	62.5 (≈ 89.5 µM)	62.5 (≈ 89.5 µM)	cell aggregates (clusters) was observed	125 (≈ 179 µM)	0.026 ± 0.004	62.5 (≈ 89.5 µM)	31.25 to 62.5	31.25 to 62.5
CCCCCCCCCCCCCCCC(=O)N[C@@H](Cc1ccc(O)cc1)C(=O)N[C@@H](CCCCN)C(=O)N[C@@H](CCCCN)C(N)=O [P1] (Palmitoyl-Tyr-Lys-Lys-NH2)	11.7 ± 3.3	long intertwined nanofibers	62.5 (≈ 92.6 µM)	62.5 (≈ 92.6 µM)	–	125 (≈ 185 µM)	0.040 ± 0.003	31.25 to 62.5	15.63 to 31.25	31.25 to 62.5
CCCCCCCCCCCCCCCC(=O)N[C@@H](Cc1ccc(O)cc1)C(=O)N[C@H](CCCCN)C(=O)N[C@H](CCCCN)C(N)=O [P1D] (Palmitoyl-Tyr-[dK]-[dK]-NH2)	–	twisted nanotape structures of variable width	250 (≈ 370 µM)	62.5 (≈ 92.6 µM)	–	125 (≈ 185 µM)	0.034 ± 0.005	31.25 (≈ 46.3 µM)	15.63 to 31.25	31.25 (≈ 46.3 µM)
